Several values for one entry are separate records, joined by “and”; a condition that tells them apart may be missing. Equal entries are not always repeated.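 How tested: cells in 96-well plates exposed to compound for 48 hours at five concentrations. GI50 marks 50% less growth. TGI denotes the concentration required for complete inhibition of growth.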
How the values were obtained:
Experiment in all cases: NCI-60 cell line screen, 48 h; in the data active = GI50 below about 0.43 µM; inactive = the rest
A549 NSCLC = tested on: A549 NSCLC
CAKI-1 renal = tested on: CAKI-1 renal
HCT-116 colon = tested on: HCT-116 colon
LOX IMVI melanoma = tested on: LOX IMVI melanoma
OVCAR-3 ovarian = tested on: OVCAR-3 ovarian
OVCAR-5 ovarian = tested on: OVCAR-5 ovarian
SF-268 CNS = tested on: SF-268 CNS
SNB-19 CNS = tested on: SNB-19 CNS
SR leukemia = tested on: SR leukemia
SK-MEL-2 melanoma = tested on: SK-MEL-2 melanoma

CC(O)c1ccc(C(O)/C(=N\NC(=O)c2ccncc2)c2nc3ccc([N+](=O)[O-])cc3[nH]c2=O)cc1 (stereo not given)
> 100 µM: TGI (A549 NSCLC) | TGI (CAKI-1 renal) | TGI (HCT-116 colon) | TGI (LOX IMVI melanoma) | TGI (OVCAR-3 ovarian) | TGI (OVCAR-5 ovarian) | TGI (SF-268 CNS) | TGI (SNB-19 CNS) | TGI (SR leukemia)

Cc1nc2cc(Nc3nc(Nc4ccc(F)cc4)nc(N4CCCC4)n3)ccc2n1Cc1ccccc1
87.3 µM: TGI (SNB-19 CNS)
3.09 µM: TGI (HCT-116 colon)
3.9 µM: TGI (SF-268 CNS)
3.33 µM: TGI (SK-MEL-2 melanoma)
3.28 µM: TGI (OVCAR-3 ovarian)
4.63 µM: TGI (A549 NSCLC)
inactive: GI50 (A549 NSCLC) 2.05 µM | GI50 (HCT-116 colon) 1.66 µM | GI50 (LOX IMVI melanoma) 1.84 µM | GI50 (OVCAR-3 ovarian) 1.77 µM | GI50 (OVCAR-5 ovarian) 1.72 µM | GI50 (SF-268 CNS) 1.94 µM | GI50 (SK-MEL-2 melanoma) 1.69 µM | GI50 (SNB-19 CNS) 3.4 µM
3.42 µM: TGI (OVCAR-5 ovarian)
3.36 µM: TGI (LOX IMVI melanoma)

Cn1c(=O)c(-c2c(Cl)cccc2Cl)cc2cnc(Nc3ccc(I)cc3)nc21
1.12 µM: TGI (LOX IMVI melanoma)
< 0.01 µM: TGI (SR leukemia)
> 100 µM: TGI (SK-MEL-2 melanoma) | TGI (SNB-19 CNS)
19.4 µM: TGI (A549 NSCLC)
3.69 µM: TGI (OVCAR-5 ovarian)
inactive: GI50 (A549 NSCLC) 3.72 µM | GI50 (OVCAR-5 ovarian) 0.536 µM | GI50 (SK-MEL-2 melanoma) 1.52 µM | GI50 (SNB-19 CNS) 0.625 µM
0.064 µM: TGI (OVCAR-3 ovarian)
0.305 µM: TGI (HCT-116 colon)
active: GI50 (CAKI-1 renal) < 0.0247 µM | GI50 (LOX IMVI melanoma) 0.271 µM | GI50 (OVCAR-3 ovarian) 0.0158 µM | GI50 (SR leukemia) < 0.01 µM

O=C(CC1(O)C(=O)Nc2ccc([N+](=O)[O-])cc21)c1ccc(Br)cc1 (stereo not given)
> 100 µM: TGI (A549 NSCLC) | TGI (HCT-116 colon) | TGI (LOX IMVI melanoma) | TGI (OVCAR-3 ovarian) | TGI (OVCAR-5 ovarian) | TGI (SF-268 CNS) | TGI (SK-MEL-2 melanoma) | TGI (SNB-19 CNS)

c1ccc(N2N=NC3C4CC(C5c6ccccc6C45)C32)cc1 (stereo not given)
> 100 µM: TGI (A549 NSCLC) | TGI (CAKI-1 renal) | TGI (OVCAR-3 ovarian) | TGI (OVCAR-5 ovarian) | TGI (SF-268 CNS) | TGI (SNB-19 CNS) | TGI (SR leukemia)
82.7 µM: TGI (HCT-116 colon)
39.6 µM: TGI (LOX IMVI melanoma)

CN(CCCCN)c1ccc2c(=O)[nH][nH]c(=O)c2c1
> 100 µM: TGI (A549 NSCLC) | TGI (CAKI-1 renal) | TGI (HCT-116 colon) | TGI (LOX IMVI melanoma) | TGI (OVCAR-3 ovarian) | TGI (OVCAR-5 ovarian) | TGI (SF-268 CNS) | TGI (SK-MEL-2 melanoma)

COc1cc2oc(-c3ccc(O)cc3)cc(=O)c2c(OC)c1O
> 100 µM: TGI (A549 NSCLC) | TGI (CAKI-1 renal) | TGI (HCT-116 colon) | TGI (LOX IMVI melanoma) | TGI (OVCAR-3 ovarian) | TGI (OVCAR-5 ovarian) | TGI (SF-268 CNS) | TGI (SK-MEL-2 melanoma) | TGI (SNB-19 CNS)

O=C(O)c1ccccc1C1c2ccc(Cl)cc2Oc2cc(Cl)ccc21
> 100 µM: TGI (A549 NSCLC) | TGI (CAKI-1 renal) | TGI (LOX IMVI melanoma) | TGI (OVCAR-3 ovarian) | TGI (OVCAR-5 ovarian) | TGI (SF-268 CNS) | TGI (SK-MEL-2 melanoma) | TGI (SNB-19 CNS)

CCOC(=O)Cn1c(=O)[nH]c(=O)c2[nH]cnc21
> 100 µM: TGI (A549 NSCLC) | TGI (HCT-116 colon) | TGI (LOX IMVI melanoma) | TGI (OVCAR-3 ovarian) | TGI (OVCAR-5 ovarian) | TGI (SF-268 CNS) | TGI (SK-MEL-2 melanoma) | TGI (SNB-19 CNS) | TGI (SR leukemia)

COc1cc(OC)c(/C=C/C(=O)c2c(O)cc(OC)c(C3CCN(C)CC3)c2OC)c(OC)c1
active: GI50 (HCT-116 colon) 0.414 µM
1.65 µM: TGI (HCT-116 colon)
3.32 µM: TGI (OVCAR-3 ovarian)
3.24 µM: TGI (SK-MEL-2 melanoma)
2.84 µM: TGI (OVCAR-5 ovarian)
3.29 µM: TGI (SF-268 CNS)
inactive: GI50 (A549 NSCLC) 1.57 µM | GI50 (CAKI-1 renal) 1.51 µM | GI50 (OVCAR-3 ovarian) 1.81 µM | GI50 (OVCAR-5 ovarian) 1.48 µM | GI50 (SF-268 CNS) 1.63 µM | GI50 (SK-MEL-2 melanoma) 1.78 µM | GI50 (SNB-19 CNS) 1.78 µM
2.93 µM: TGI (CAKI-1 renal)
2.97 µM: TGI (A549 NSCLC)
3.81 µM: TGI (SNB-19 CNS)

COC(=O)c1cc2c(nc1C)-c1ccccc1OS2(=O)=O
> 100 µM: TGI (A549 NSCLC) | TGI (CAKI-1 renal) | TGI (HCT-116 colon) | TGI (LOX IMVI melanoma) | TGI (OVCAR-3 ovarian) | TGI (OVCAR-5 ovarian) | TGI (SF-268 CNS) | TGI (SNB-19 CNS) | TGI (SR leukemia)

COC1C(C)OC(OC2CC(C)(O)Cc3cc4c(c(O)c32)C(=O)c2c(O)cc3c(c2C4=O)OC2OC3(C)C(O)C(N(C)C)C2O)C(OC)C1(C)OC (stereo not given)
0.137 µM and 0.0386 µM: TGI (SK-MEL-2 melanoma)
active: GI50 (A549 NSCLC) 0.0835 µM and 0.0476 µM | GI50 (CAKI-1 renal) 0.0476 µM and 0.0219 µM | GI50 (HCT-116 colon) 0.00273 µM and 0.0132 µM | GI50 (LOX IMVI melanoma) 0.0226 µM and 0.0661 µM | GI50 (OVCAR-3 ovarian) 0.104 µM and 0.0376 µM | GI50 (SF-268 CNS) 0.0512 µM and 0.0161 µM | GI50 (SK-MEL-2 melanoma) 0.0303 µM | GI50 (SNB-19 CNS) 0.055 µM and 0.0181 µM | GI50 (SR leukemia) 0.0114 µM
0.422 µM and 0.452 µM: TGI (CAKI-1 renal)
1.81 µM and 1.03 µM: TGI (SF-268 CNS)

c1cnc2nc3n(c2c1)CSC3
> 100 µM: TGI (A549 NSCLC) | TGI (CAKI-1 renal) | TGI (LOX IMVI melanoma) | TGI (OVCAR-3 ovarian) | TGI (OVCAR-5 ovarian) | TGI (SF-268 CNS) | TGI (SK-MEL-2 melanoma)

CC(C)=Cc1cc(C(=O)NCCNC(=O)c2cc(C=C(C)C)nc(NC#N)n2)nc(NC#N)n1
> 100 µM: TGI (A549 NSCLC) | TGI (CAKI-1 renal) | TGI (HCT-116 colon) | TGI (LOX IMVI melanoma) | TGI (OVCAR-3 ovarian) | TGI (OVCAR-5 ovarian) | TGI (SF-268 CNS) | TGI (SNB-19 CNS)

C1=CC(=NN=P(c2ccccc2)(c2ccccc2)c2ccccc2)C=C1
> 100 µM: TGI (A549 NSCLC) | TGI (CAKI-1 renal) | TGI (LOX IMVI melanoma) | TGI (OVCAR-3 ovarian) | TGI (OVCAR-5 ovarian) | TGI (SF-268 CNS) | TGI (SK-MEL-2 melanoma) | TGI (SNB-19 CNS)

O=[P+](O)c1cccnc1
> 100 µM: TGI (A549 NSCLC) | TGI (CAKI-1 renal) | TGI (HCT-116 colon) | TGI (LOX IMVI melanoma) | TGI (OVCAR-3 ovarian) | TGI (OVCAR-5 ovarian) | TGI (SF-268 CNS) | TGI (SNB-19 CNS) | TGI (SR leukemia)

Cn1cc(-c2ccc3nnc(C(F)(F)c4ccc5ncccc5c4)n3n2)cn1
inactive: GI50 (A549 NSCLC) 60.2 µM | GI50 (CAKI-1 renal) 31.4 µM | GI50 (HCT-116 colon) 61.9 µM | GI50 (LOX IMVI melanoma) 55.5 µM | GI50 (OVCAR-3 ovarian) 80.5 µM | GI50 (OVCAR-5 ovarian) 71.9 µM | GI50 (SF-268 CNS) 50.7 µM | GI50 (SK-MEL-2 melanoma) 50.6 µM | GI50 (SNB-19 CNS) 53.4 µM
> 100 µM: TGI (A549 NSCLC) | TGI (CAKI-1 renal) | TGI (HCT-116 colon) | TGI (LOX IMVI melanoma) | TGI (OVCAR-3 ovarian) | TGI (OVCAR-5 ovarian) | TGI (SF-268 CNS) | TGI (SK-MEL-2 melanoma) | TGI (SNB-19 CNS)

CSCC(COC(C)=O)(CSC)c1ccncc1
> 100 µM: TGI (A549 NSCLC) | TGI (CAKI-1 renal) | TGI (HCT-116 colon) | TGI (LOX IMVI melanoma) | TGI (OVCAR-3 ovarian) | TGI (SF-268 CNS) | TGI (SK-MEL-2 melanoma) | TGI (SNB-19 CNS) | TGI (SR leukemia)

Cn1c2c(c3ccccc31)CCN(CCCN1CCN(c3ccccc3)CC1)C2=O
61 µM: TGI (A549 NSCLC)
> 100 µM: TGI (SF-268 CNS)
29.8 µM: TGI (HCT-116 colon)
60 µM: TGI (LOX IMVI melanoma)
30.8 µM: TGI (CAKI-1 renal)

CCOC(=O)CP(=S)(S)c1ccccc1 (stereo not given)
> 100 µM: TGI (A549 NSCLC) | TGI (CAKI-1 renal) | TGI (LOX IMVI melanoma) | TGI (OVCAR-5 ovarian) | TGI (SF-268 CNS) | TGI (SK-MEL-2 melanoma) | TGI (SNB-19 CNS) | TGI (SR leukemia)

C[C@H]1CCC2C(CN3CCCCC3)C(=O)OC2[C@]2(C)C(=O)CC(N3CCCCC3)C12O (stereo not given in full)
12 µM: TGI (HCT-116 colon)
90.8 µM: TGI (A549 NSCLC)
15.8 µM: TGI (SR leukemia)
22.6 µM: TGI (OVCAR-5 ovarian)
44.8 µM: TGI (SF-268 CNS)
90.4 µM: TGI (SK-MEL-2 melanoma)
97.9 µM: TGI (CAKI-1 renal)
73 µM: TGI (SNB-19 CNS)
14.7 µM: TGI (OVCAR-3 ovarian)

From PubChem BioAssay (NCI)
